Assay results published in DBAASP.
Values after ≈ are worked out from the molar mass of the structure shown. Values joined by “and” are separate entries in the source; they are usually repeats but may differ in a detail not shown here. Equal entries are not always repeated. Blank lines part the entries; values can stand above or below the molecule they belong to.

Key:
Assay in all cases: ≥ marks a high value that may be exact or a test limit, other limits are often not marked, values filed in µg/mL are converted to µM
[1] = tested on: Bacillus subtilis IFO 3513
[2] = tested on: Staphylococcus aureus IFO 12732
[3] = tested on: Escherichia coli IFO 12734
[4] = tested on: Candida albicans ATCC 10231
[5] = tested on: Salmonella enterica subsp. enterica serovar Enteritidis ATCC 13076
[6] = tested on: Staphylococcus aureus ATCC 15752
[7] = tested on: Escherichia coli ATCC 27325
[8] = tested on: Cryptococcus neoformans ATCC 34881
[9] = tested on: Saccharomyces cerevisiae ATCC 44774
[10] = tested on: Streptococcus mutans ATCC 25175
[11] = tested on: Pseudomonas putida ATCC 17426
[12] = tested on: Bacillus subtilis ATCC 62037
[13] = tested on: Candida albicans ATCC 90028
[14] = tested on: Staphylococcus aureus NCTC 10788
[15] = tested on: Escherichia coli ATCC 25922
[16] = tested on: Escherichia coli ATCC 11775
[17] = tested on: Staphylococcus aureus NCTC 8325
[18] = tested on: Staphylococcus aureus ATCC 12600
[19] = tested on: Staphylococcus aureus ATCC 12493
[20] = tested on: Escherichia coli NCTC 10418
[21] = tested on: Candida albicans NCPF 1467
[22] = tested on: Staphylococcus aureus ATCC 25923
Botrytis cinerea = tested on: Botrytis cinerea
Pseudomonas aeruginosa = tested on: Pseudomonas aeruginosa
Staphylococcus aureus = tested on: Staphylococcus aureus
Escherichia coli W160-37 = tested on: Escherichia coli W160-37
[23] = tested on: Staphylococcus epidermidis RP62A/1
[24] = tested on: Staphylococcus epidermidis RP62A
[25] = tested on: Staphylococcus aureus ATCC 29213
[26] = tested on: Stenotrophomonas maltophilia
[27] = tested on: Escherichia coli ATCC 25726
[28] = tested on: Klebsiella pneumoniae ATCC 700603
Acinetobacter baumannii = tested on: Acinetobacter baumannii
[29] = tested on: Pseudomonas aeruginosa ATCC 27853
[30] = tested on: Proteus mirabilis ATCC 25933
[31] = tested on: Bacillus subtilis NBRC 3513
[32] = tested on: Staphylococcus aureus NBRC 12732
[33] = tested on: Bacillus megaterium ATCC 19213
[34] = tested on: Staphylococcus epidermidis NBRC 12933

Compound: CC[C@H](C)[C@H](N)C(=O)N[C@@H](CC(N)=O)C(=O)N[C@@H](CC(C)C)C(=O)N[C@@H](CCCCN)C(=O)NCC(=O)N[C@@H](CC(C)C)C(=O)N[C@H](C(=O)N[C@@H](CCCCN)C(=O)N[C@@H](CCCCN)C(=O)N[C@H](C(=O)N[C@@H](C)C(=O)N[C@@H](CO)C(=O)N[C@@H](CC(C)C)C(=O)N[C@@H](CC(C)C)C(=O)N[C@H](C(=O)O)[C@@H](C)O)C(C)C)[C@@H](C)CC [INLKGLIKKVASLLT]
MIC [4]: 100 µM (≈ 161 µg/mL)
MIC [16]: 25 µM (≈ 40.3 µg/mL)
MIC (Botrytis cinerea): 5 µM (≈ 8.06 µg/mL)
MIC [18]: ≥ 100 µM

Compound: CC(C)[C@H](NC(=O)[C@H](CCCCN)NC(=O)CNC(=O)CNC(=O)[C@H](CCC(N)=O)NC(=O)[C@H](CCCCN)NC(=O)CNC(=O)[C@H](CCCN=C(N)N)NC(=O)CNC(=O)[C@@H](N)CCCCN)C(=O)N[C@@H](CCCN=C(N)N)C(=O)N[C@@H](C)C(=O)N[C@@H](CCCCN)C(=O)N[C@@H](C)C(=O)N[C@@H](CCCCN)C(=O)N[C@H](C(=O)N[C@@H](CCCN=C(N)N)C(=O)O)[C@@H](C)O [KGRGKQGGKVRAKAKTR]
MIC [4]: 0.548 µM (≈ 1 µg/mL)
MIC [5]: 2.19 µM (≈ 4 µg/mL)
MIC [6]: 2.19 µM (≈ 4 µg/mL)
MIC [7]: 0.548 µM (≈ 1 µg/mL)
MIC [8]: 0.548 µM (≈ 1 µg/mL)
MIC [9]: 0.548 µM (≈ 1 µg/mL)
MIC [10]: 1.1 µM (≈ 2 µg/mL)
MIC [11]: 0.548 µM (≈ 1 µg/mL)
MIC [12]: 0.548 µM (≈ 1 µg/mL)

Compound: CC[C@H](C)[C@H](N)C(=O)N[C@@H](CCCCN)C(=O)N[C@@H](CC(C)C)C(=O)N[C@@H](CO)C(=O)N[C@@H](CCCCN)C(=O)N[C@@H](CCCCN)C(=O)N[C@H](C(=O)N[C@@H](CCCCN)C(=O)N[C@@H](CC(=O)O)C(=O)N[C@@H](CC(N)=O)C(=O)N[C@@H](CC(C)C)C(=O)N[C@@H](CCCCN)C(=O)N[C@@H](CCCCN)C(=O)N[C@H](C(=O)N[C@@H](CC(C)C)C(=O)N[C@@H](CCCCN)C(=O)NCC(=O)N[C@@H](C)C(=O)N[C@H](C(=O)N[C@@H](CCCCN)C(=O)NCC(=O)N[C@@H](C)C(=O)N[C@H](C(=O)N[C@@H](C)C(=O)N[C@H](C(=O)N[C@@H](C)C(=O)N[C@@H](CCCCN)C(=O)N[C@@H](CCSC)C(=O)N[C@H](C(N)=O)C(C)C)C(C)C)[C@@H](C)CC)[C@@H](C)CC)C(C)C)[C@@H](C)O [IKLSKKTKDNLKKVLKGAIKGAIAVAKMV]
MIC [23]: 0.8 µM (≈ 2.48 µg/mL)
MIC [24]: 1.6 µM (≈ 4.95 µg/mL)
MIC [25]: 3.1 µM (≈ 9.59 µg/mL)
MIC [26]: 1.6 µM (≈ 4.95 µg/mL)
MIC [13]: ≥ 100 µM
MIC [27]: 3.1 µM (≈ 9.59 µg/mL)
MIC [28]: 6.25 µM (≈ 19.3 µg/mL)
MIC (Acinetobacter baumannii): 3.1 µM (≈ 9.59 µg/mL)
MIC [22]: 3.1 µM (≈ 9.59 µg/mL)
MIC [29]: 12.5 µM (≈ 38.7 µg/mL)
MIC [30]: ≥ 100 µM

Results, then the molecule that gave them:

MIC [1]: 3.55 µM (≈ 6.25 µg/mL)
MIC [2]: 3.55 µM (≈ 6.25 µg/mL)
MIC [3]: 14.2 µM (≈ 25 µg/mL)
Compound: CC[C@H](C)[C@H](NC(=O)[C@H](CC(C)C)NC(=O)[C@@H]1CCCN1C(=O)[C@H](Cc1c[nH]c2ccccc12)NC(=O)[C@H](CCCCN)NC(=O)[C@H](Cc1c[nH]c2ccccc12)NC(=O)[C@@H]1CCCN1C(=O)[C@H](CC(C)C)NC(=O)[C@H](CC(C)C)NC(=O)[C@@H]1CCCN1C(=O)[C@H](Cc1c[nH]c2ccccc12)NC(=O)[C@H](CCCN=C(N)N)NC(=O)[C@@H](N)CCCN=C(N)N)C(N)=O [RRWPLLPWKWPLI]

MIC [4]: 0.395 µM (≈ 1 µg/mL)
MIC [5]: 0.395 µM (≈ 1 µg/mL)
MIC [6]: 0.198 µM (≈ 0.5 µg/mL)
MIC [7]: 0.198 µM (≈ 0.5 µg/mL)
MIC [8]: 0.395 µM (≈ 1 µg/mL)
MIC [9]: 0.395 µM (≈ 1 µg/mL)
MIC [10]: 0.395 µM (≈ 1 µg/mL)
MIC [11]: 0.395 µM (≈ 1 µg/mL)
MIC [12]: 0.395 µM (≈ 1 µg/mL)
Compound: CC[C@H](C)[C@H](NC(=O)[C@@H]1CCCN1C(=O)[C@H](Cc1c[nH]c2ccccc12)NC(=O)[C@H](CCC(N)=O)NC(=O)[C@H](CCCCN)NC(=O)[C@H](CC(C)C)NC(=O)[C@H](CC(C)C)NC(=O)[C@@H](N)CCCCN)C(=O)NCC(=O)N[C@@H](CCCCN)C(=O)N[C@@H](CC(C)C)C(=O)N[C@@H](CC(C)C)C(=O)N[C@@H](CCCCN)C(=O)N[C@@H](CCCCN)C(=O)N[C@@H](CC(C)C)C(=O)N[C@@H](CC(C)C)C(=O)N[C@@H](CCCCN)C(=O)N[C@@H](CCCCN)C(=O)N[C@@H](CC(C)C)C(=O)N[C@@H](CC(C)C)C(=O)N[C@@H](CCCCN)C(=O)O [KLLKQWPIGKLLKKLLKKLLK]

MIC [13]: ≥ 100 µM
MIC [14]: ≥ 32 µM
MIC [15]: > 60 µM and 100 µM
MIC [16]: 25 µM (≈ 55.9 µg/mL)
MIC [17]: 13 µM (≈ 29.1 µg/mL)
MIC [18]: 12.5 µM (≈ 28 µg/mL)
MIC [19]: ≥ 32 µM
MIC [20]: ≥ 512 µM
MIC [21]: ≥ 32 µM
MIC [22]: > 60 µM
Compound: CC[C@H](C)[C@@H]1NC(=O)[C@H](CC(C)C)NC(=O)[C@@H](NC(=O)[C@H](Cc2ccccc2)NC(=O)[C@H](CC(C)C)NC(=O)[C@H](CCCCN)NC(=O)[C@@H]2CCCN2C(=O)[C@H](CC(C)C)NC(=O)[C@H](C)NC(=O)[C@H](C)NC(=O)[C@H](CC(C)C)NC(=O)[C@H](C)NC(=O)[C@H](CC(C)C)NC(=O)[C@H](CO)NC(=O)[C@H](CC(C)C)NC(=O)[C@@H](N)Cc2ccccc2)CSSC[C@@H](C(=O)O)NC(=O)[C@H](CCCCN)NC(=O)[C@H](CCCCN)NC(=O)[C@H](Cc2ccccc2)NC1=O [FLSLALAALPKLFCLIFKKC]

MIC (Pseudomonas aeruginosa): 10.1 µM (≈ 15 µg/mL)
MIC (Staphylococcus aureus): 6.71 µM (≈ 9.99 µg/mL)
MIC (Escherichia coli W160-37): 3.35 µM (≈ 5 µg/mL)
Compound: CC[C@H](C)[C@H](NC(=O)CN)C(=O)N[C@@H](Cc1c[nH]c2ccccc12)C(=O)N[C@@H](CCCCN)C(=O)N[C@@H](CO)C(=O)N[C@@H](CC(C)C)C(=O)N[C@@H](Cc1ccccc1)C(=O)N[C@H](C(=O)N[C@@H](CCCCN)C(=O)N[C@@H](CC(C)C)C(=O)N[C@@H](CC(C)C)C(=O)N[C@@H](CCCCN)C(=O)NCC(N)=O)[C@@H](C)O [GIWKSLFTKLLKG]

MIC [31]: ≥ 64 µM
MIC [32]: ≥ 64 µM
MIC [33]: ≥ 32 µM
MIC [34]: ≥ 128 µM
Compound: CC(C)C[C@H](NC(=O)[C@H](CCCCN)NC(=O)[C@H](CC(C)C)NC(=O)[C@H](CC(C)C)NC(=O)[C@H](Cc1c[nH]c2ccccc12)NC(=O)[C@@H](N)CCCN=C(N)N)C(=O)NCC(=O)N[C@@H](Cc1cnc[nH]1)C(=O)N[C@@H](Cc1cnc[nH]1)C(=O)NCC(=O)N[C@@H](CCCN=C(N)N)C(=O)O [RWLLKLGHHGR]
